In patent US5591758A, “Organic nitrates, processes for their preparation and their use in the treatment of cardiovascular diseases” (Laboratoires Hoechst, SA, priority 1991, dated 1997):
Counter-ions that a name gives are not always drawn.

Key:
anesthetised pigs = assay: Haemodynamic effects on anesthetised pigs; format: in vivo, pigs ("German land" race)
Experimental: Haemodynamic effects of the compounds according to the invention on anesthetised pigs or dogs
Pigs are of "German land" race (20-26 kg) and are used after fasting overnight.
In the case of pigs, sedation, analgesia and anesthesia are induced by ketamine HCl (20 mg/kg i.m.), methonidate HCl (10 mg/kg i.m.), xylacine HCl (3 mg/kg i.m.) and sodium pentobarbitol (25-30 mg/kg as bolus i.v. or 0.16 mg/kg/min as i.v. perfusion).
The pigs or dogs are placed under artificial respiration in ambient air. Analysis of the blood gases (pO2, pCO2) is carried out at regular intervals and oxygen can be supplied via the respirator, if necessary.
The haemodynamic parameters recorded include the left ventricular pressure (LVP; Millar PC350 Tip catheter inserted via the carotid artery), systemic blood pressure (BPs, BPd; full catheter in a femoral artery), the end pressure of the left ventricular diastole (LVEDP), the ventricular contractility (LVPdp/dtmax) and the heart rate (HR).
The haemodynamic variables are recorded continuously for 1 to 3 hours, as a function of the period of action of the compound.
The effects of the compounds studied are shown as the absolute difference with respect to the base value (bv) measured before administration of the compounds and are shown in Table VII (a,b,c).
An antianginal activity is estimated by a fall in the BPs and the LVEDP (fall in venous return).

[1] = tested on: isolated pulmonary vessel; assay: Relaxant activity on blood vessels isolated from guinea pigs (pulmonary artery); settings: Cavia porcellus; guinea pig pulmonary artery, K+ depolarised, Ca2+ contraction; read-out: IC50 (relaxation of 50%)
Experimental: Determination of the relaxant activity of the compounds according to the invention on blood vessels isolated from guinea pigs.
The pulmonary artery of male guinea pigs (350-500 g) is isolated and cut into spiral tracts (1 mm wide, 15 mm long). […] After having removed the calcium from the tissues (Tyrode without calcium and 0.2 mM EDTA), the tracts are depolarised in the presence of a concentrated solution of K^+ ions (40 mM), which is produced by replacing the NaCl by equimolar amounts of KCl, and a contraction of long duration is then induced by Ca^2+ ions (0.5 mM).
The compounds studied are then introduced into the organ cell in increasing concentrations.
Each compound is tested on at least four vessel spiral tracts.

thoracic aorta = assay: Vasorelaxant effect on isolated vessels (rat thoracic aorta rings without endothelium, precontracted with noradrenalin); design: species or system Wistar rats; settings: for Emax: Rattus norvegicus, maximum inhibition of noradrenalin effect, 10^-8 to 10^-4 M substance, read-out: Maximum Relaxation; for IC50: rat aorta, 10^-7 M noradrenalin contraction
In short: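 Endothelium-denuded thoracic aorta rings from Wistar rats, held in Krebs-Ringer buffer (pH 7.4, 37 °C, 95% O2/5% CO2) under isometric tension and precontracted with 10^-7 M noradrenalin, received cumulative compound (10^-8 to 10^-4 M). Maximum relaxation given as percent; IC50 calculated when relaxation exceeded 50%.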

[2] = Stability in water (seen in optical rotation); format: physicochemical; settings: water (c 0.6)

Row | SMILES | IC50 [1] | IC50 (thoracic aorta) | Emax (thoracic aorta) | BPs (min), period of action (anesthetised pigs; pigs, 10,0 mg/kg i.d.) | BPs, difference to base value (anesthetised pigs; pigs, 10,0 mg/kg i.d.) | LVRDP (min), period of action (anesthetised pigs; pigs, 10,0 mg/kg i.d.) | LVRDP, difference to base value (anesthetised pigs; pigs, 10,0 mg/kg i.d.) | further results
1 | CC(C)(C)OC(=O)NCC(=O)N[C@H]1CO[C@H]2[C@@H]1OC[C@@H]2O[N+](=O)[O-] [Compound 5, N-[(t-Butoxy)carbonyl]glycine amide of 5-amino-5-deoxy-2-O-nitro-1,4:3,6-dianhydro-L-iditol] | 14 µM | 25 µM | 70% |  |  |  |  | BPs (min), period of action (anesthetised pigs; pigs, 1,0 mg/kg i.d.): > 120 min; BPs, difference to base value (anesthetised pigs; pigs, 1,0 mg/kg i.d.): -24 mmHg; LVRDP (min), period of action (anesthetised pigs; pigs, 1,0 mg/kg i.d.): > 120 min; LVRDP, difference to base value (anesthetised pigs; pigs, 1,0 mg/kg i.d.): -4,0 mmHg
2 | NCC(=O)N[C@H]1CO[C@H]2[C@@H]1OC[C@@H]2O[N+](=O)[O-] [Compound 6, Glycine amide of 5-amino-5-deoxy-2-O-nitro-1,4:3,6-dianhydro-L-iditol monohydrochloride] | 30 µM | > 100 µM | 45% |  |  |  |  | BPs (min), period of action (anesthetised pigs; pigs, 1,0 mg/kg i.d.): > 180 min; BPs, difference to base value (anesthetised pigs; pigs, 1,0 mg/kg i.d.): -31 mmHg; LVRDP (min), period of action (anesthetised pigs; pigs, 1,0 mg/kg i.d.): > 180 min; LVRDP, difference to base value (anesthetised pigs; pigs, 1,0 mg/kg i.d.): -4,0 mmHg
3 | CC(=O)NCSC[C@H](NC(=O)OC(C)(C)C)C(=O)O[C@H]1CO[C@H]2[C@@H]1OC[C@H]2O[N+](=O)[O-] [Compound 20, S-[(Acetylamino)methyl]-N-[(t-butoxy)carbonyl]-L-cysteine ester of 5-O-nitro-1,4:3,6-dianhydro-D-glucitol] |  | 28 µM | 85% |  |  |  |  | BPs (min), period of action (anesthetised pigs; pigs, 10 mg/kg i.v.): 5 min; BPs, difference to base value (anesthetised pigs; pigs, 10 mg/kg i.v.): -20 mmHg; LVRDP (min), period of action (anesthetised pigs; pigs, 10 mg/kg i.v.): 5 min; LVRDP, difference to base value (anesthetised pigs; pigs, 10 mg/kg i.v.): -4,0 mmHg
4 | O=C(O[C@@H]1CO[C@H]2[C@@H]1OC[C@@H]2O[N+](=O)[O-])c1ccccc1SCc1ccccc1 [Compound 28, 5-O-[2-[(Phenylmethyl)thio]benzoyl]-2-O-nitro-1,4:3,6-dianhydro-D-glucitol] | 2 µM | 50 µM | 70% |  |  |  |  | BPs (min), period of action (anesthetised pigs; pigs, 3,0 mg/kg i.d.): > 180 min; BPs, difference to base value (anesthetised pigs; pigs, 3,0 mg/kg i.d.): -28 mmHg; LVRDP (min), period of action (anesthetised pigs; pigs, 3,0 mg/kg i.d.): > 180 min; LVRDP, difference to base value (anesthetised pigs; pigs, 3,0 mg/kg i.d.): -6,0 mmHg
5 | CC(=O)NCSC[C@H](NC(=O)OC(C)(C)C)C(=O)N[C@H]1CO[C@H]2[C@@H]1OC[C@@H]2O[N+](=O)[O-] [Compound 33, S-[(Acetylamino)methyl]-N-[(t-butoxy)carbonyl]-L-cysteine amide of 5-amino-5-deoxy-2-O-nitro-1,4:3,6-dianhydro-L-iditol] |  | > 100 µM | 50% | > 60 min | -12 mmHg | > 60 min | -3,0 mmHg | 
6 | CC(=O)NCSC[C@H](N)C(=O)N[C@H]1CO[C@H]2[C@@H]1OC[C@@H]2O[N+](=O)[O-] [Compound 34, S-[(Acetylamino)methyl]-L-cysteine amide of 5-amino-5-deoxy-2-O-nitro-1,4:3,6-dianhydro-L-iditol monohydrochloride] |  | > 100 µM | 25% | > 180 min | -22 mmHg | > 180 min | -4,0 mmHg | 
7 | O=C(N[C@H]1CO[C@H]2[C@@H]1OC[C@@H]2O[N+](=O)[O-])c1ccccc1SCc1ccccc1 [Compound 39] | 1 µM | 50 µM | 80% | > 90 min | -5 mmHg | > 90 min | -1,0 mmHg | 
8 | O=C(CNC(=O)c1ccccc1SCc1ccccc1)N[C@H]1CO[C@H]2[C@@H]1OC[C@@H]2O[N+](=O)[O-] [Compound 47, 5-[[[[2-[(Phenylmethyl)thio]benzoyl]amino]-1-oxoethyl]amino]-5-deoxy-2-O-nitro-1,4:3,6-dianhydro-L-iditol] | 2 µM |  |  | > 120 min | -10 mmHg | > 90 min | -1,0 mmHg | 
9 | CC1(C)SC[C@@H](C(=O)NCC(=O)N[C@H]2CO[C@H]3[C@@H]2OC[C@@H]3O[N+](=O)[O-])N1C=O [Compound 48, 5-[[2-[[(3-Formyl-2,2-dimethyl-4-L-thiazolidinyl)carbonyl]amino]-1-oxoethyl]amino]-5-deoxy-2-O-nitro-1,4:3,6-dianhydro-L-iditol] | > 100 µM | > 100 µM | 25% | > 180 min | -25 mmHg | > 180 min | -4,0 mmHg | 

Further molecules by falling IC50 (thoracic aorta), results first:

Row | IC50 [1] | IC50 (thoracic aorta) | SMILES | Emax (thoracic aorta) | BPs (min), period of action (anesthetised pigs; pigs, 10,0 mg/kg i.d.) | BPs, difference to base value (anesthetised pigs; pigs, 10,0 mg/kg i.d.) | LVRDP (min), period of action (anesthetised pigs; pigs, 10,0 mg/kg i.d.) | LVRDP, difference to base value (anesthetised pigs; pigs, 10,0 mg/kg i.d.) | further results
10 |  | 25 µM | CC1(C)SC[C@@H](C(=O)N[C@H]2CO[C@H]3[C@@H]2OC[C@@H]3O[N+](=O)[O-])N1C=O [Compound 31, 5-[[(3-Formyl-2,2-dimethyl-4-L-thiazolidinyl)carbonyl]amino]-5-deoxy-2-O-nitro-1,4:3,6-dianhydro-L-iditol monohydrochloride] | 83% | > 60 min | -15 mmHg | > 60 min | -2,0 mmHg | 
11 | 6 µM | 20 µM | O=C(CNC(=O)OCc1ccccc1)N[C@H]1CO[C@H]2[C@@H]1OC[C@@H]2O[N+](=O)[O-] [Compound 4, N-[(Benzyloxy)carbonyl]glycine amide of 5-amino-5-deoxy-2-O-nitro-1,4:3,6-dianhydro-L-iditol] | 75% |  |  |  |  | BPs (min), period of action (anesthetised pigs; pigs, 3,0 mg/kg i.d.): > 120 min; BPs, difference to base value (anesthetised pigs; pigs, 3,0 mg/kg i.d.): -28 mmHg; LVRDP (min), period of action (anesthetised pigs; pigs, 3,0 mg/kg i.d.): > 120 min; LVRDP, difference to base value (anesthetised pigs; pigs, 3,0 mg/kg i.d.): -2,0 mmHg
12 |  | 15 µM | CC1(C)N[C@H](C(=O)N[C@H]2CO[C@H]3[C@@H]2OC[C@@H]3O[N+](=O)[O-])CS1 [Compound 32, 5-[[(2,2-Dimethyl-4-L-thiazolidinyl)carbonyl]amino]-5-deoxy-2-O-nitro-1,4:3,6-dianhydro-L-iditol monohydrochloride] | 100% |  |  |  |  | BPs (min), period of action (anesthetised pigs; pigs, 3,0 mg/kg i.d.): > 180 min; BPs, difference to base value (anesthetised pigs; pigs, 3,0 mg/kg i.d.): -30 mmHg; LVRDP (min), period of action (anesthetised pigs; pigs, 3,0 mg/kg i.d.): > 180 min; LVRDP, difference to base value (anesthetised pigs; pigs, 3,0 mg/kg i.d.): -4,0 mmHg; stability in water [2]: instability of the product in water
13 | 3 µM | 10 µM | O=C(O[C@H]1CO[C@H]2[C@@H]1OC[C@H]2O[N+](=O)[O-])c1ccccc1SCc1ccccc1 [Compound 22, 2-O-[2-[(Phenylmethyl)thio]benzoyl]-5-O-nitro-1,4:3,6-dianhydro-D-glucitol] | 100% |  |  |  |  | BPs (min), period of action (anesthetised pigs; pigs, 10 mg/kg i.v.): 5 min; BPs, difference to base value (anesthetised pigs; pigs, 10 mg/kg i.v.): -73 mmHg; LVRDP (min), period of action (anesthetised pigs; pigs, 10 mg/kg i.v.): 5 min; LVRDP, difference to base value (anesthetised pigs; pigs, 10 mg/kg i.v.): -2,0 mmHg
14 | 32 µM | 10 µM | O=C(N[C@H]1CO[C@H]2[C@@H]1OC[C@@H]2O[N+](=O)[O-])[C@@H]1CSCN1 [Compound 30, 5-[[(4-L-Thiazolidinyl)carbonyl]amino]-5-deoxy-2-O-nitro-1,4:3,6-dianhydro-L-iditol monohydrochloride] | 100% |  |  |  |  | BPs (min), period of action (anesthetised pigs; pigs, 3,0 mg/kg i.d.): > 60 min; BPs, difference to base value (anesthetised pigs; pigs, 3,0 mg/kg i.d.): -40 mmHg; LVRDP (min), period of action (anesthetised pigs; pigs, 3,0 mg/kg i.d.): > 60 min; LVRDP, difference to base value (anesthetised pigs; pigs, 3,0 mg/kg i.d.): -2,0 mmHg
